{
  "source": "patent US7763604B2",
  "about": "“Methods for administration of a farnesyl dibenzodiazepinone” (Thallion Pharma Ceuticals, Inc., priority 2005, dated 2010)",
  "key": {"[1]": {"tested_on": "human glioma (U-87MG) tumor xenograft", "test": "human U-87MG glioblastoma xenograft antitumor efficacy", "format": "in vivo, female athymic (nu/nu) nude mice", "conditions": "SC 30 mg/kg q1d×5 over 2 weeks", "excerpt": "In this model and the models of Examples 3, 6 and 7, tumor growth was followed every other day by measuring tumor length (L) and width (W) using a calliper. Measurements were converted to tumor volumes (TV; mm^3) using the standard formula, TV=(L×W^2)/2. Tumor volume at day n was expressed as relative tumor volume (RTV) according to the following formula RTV=TVn/TV0, where TVn is the tumor volume at day n and TV0 is the tumor volume at day 0. The percentage of tumor growth inhibition (% TGI) was determined by 1−(mean RTV of treated group/mean RTV of control group)×100. […] Statistical analysis was calculated by the two-tailed unpaired t test using the Prism software. Animals were weighed at least twice weekly during and after treatment until completion of the study. The mice were examined frequently for overt signs of any adverse drug-related side effects.\nThe human U-87 MG (ATCC® no. HTB-14™) glioblastoma antitumor efficacy study was performed at INSERM U318 (Grenoble, France). The U-87MG cell line is derived from a brain glioblastoma of a person. […]\nFor the human glioblastoma antitumor efficacy study, female athymic (nu/nu) nude mice (6-7 weeks of age) were inoculated SC with 5×10^6 U-87MG cells (day 0). […] Tumor growth inhibition (TGI) was calculated on day 34 post tumor cell inoculation, at which time some animals from the vehicle control group had to be sacrificed due to tumor burden."}, "[2]": {"test": "pharmacokinetics of 14-day CIV infusion in rats", "format": "in vivo, Sprague-Dawley rats", "conditions": "calculated at the end of treatment", "procedure": "(§1) Sprague-Dawley rats received an intravenous continuous infusion over 14 days of Formula I at 25 mg/kg/day, 50 mg/kg/day, or 75 mg/kg/day at a rate of 2 mL/kg/h for 14 consecutive days (same formulation as in Example 7). Blood was collected from the jugular vein in tubes containing K2 EDTA from 3 rats/sex/group at the following time points: 2, 6, and 12 hours after the start of dosing on Day 1, on Day 2 at 6 hours (approximately 30 hours after the start of dosing), on Days 6 and 10 at 6 hours, and on Day 15, 1 hour prior the end of dosing, and then at 5 min, 15 min, 30 min, 1 h, and 2 h after the end of dosing."}, "[3]": {"test": "toxicity of 14-day infusion in rats", "format": "in vivo", "conditions": "all treated and control groups, attributed to the vehicle", "procedure": "as §1\nThe toxicity was due to the vehicle and was attributed to smaller size of infusion vessels, and concurrent catheter tract infection."}},
  "data": [
    {"compound": "CC(C)=CCC/C(C)=C/CC/C(C)=C/CN1C(=O)c2cccc(O)c2Nc2c(O)cc(O)cc21", "note": "[Formula I, 10-farnesyl-4,6,8-trihydroxy-dibenzodiazepin-11-one]", "values": [
      {"measurement": "body weight loss", "setting": "[1]", "result": "no significant body weight loss"},
      {"measurement": "T1/2z", "setting": "[2]; CIV 25 mg/kg/day", "result": 1.6, "unit": "h"},
      {"measurement": "T1/2z", "setting": "[2]; CIV 50 mg/kg/day", "result": 1.2, "unit": "h"},
      {"measurement": "T1/2z", "setting": "[2]; CIV 75 mg/kg/day", "result": 1.2, "unit": "h"},
      {"measurement": "findings at the site of infusion", "setting": "[3]", "result": "necrotization and inflammatory lesions at the site of infusion"}
    ]}
  ]
}
